Test results: ChEMBL document CHEMBL4406828, “Conformational restriction design of thiophene-biphenyl-DAPY HIV-1 non-nucleoside reverse transcriptase inhibitors” (Eur J Med Chem, 2019)

Key:
[1] = target: Human immunodeficiency virus type 1 reverse transcriptase (Human immunodeficiency virus 1, UniProt Q72547); experiment: Inhibition of recombinant HIV-1 reverse transcriptase p66/p51 incubated for 40 mins by picogreen dye based spectrofluorometric assay
[2] = Cytotoxicity against human MT4 cells assessed as reduction in cell viability incubated for 4 days by MTT assay; assay type: cell-based
[3] = tested on: Human immunodeficiency virus 1; experiment: Antiviral activity against HIV-1 harboring reverse transcriptase K103N mutant infected in human MT4 cells assessed as reduction in virus-induced cytopathic effect incubated for 4 days by MTT assay; assay type: functional, organism-based; details: Human immunodeficiency virus 1, MT4, 96 h
[4] = tested on: Human immunodeficiency virus 1; experiment: Antiviral activity against HIV-1 harboring reverse transcriptase Y181C mutant infected in human MT4 cells assessed as reduction in virus-induced cytopathic effect incubated for 4 days by MTT assay; assay type: functional, organism-based; details: Human immunodeficiency virus 1, MT4, 96 h
[5] = tested on: Human immunodeficiency virus 1; experiment: Antiviral activity against HIV-1 harboring reverse transcriptase L100I mutant infected in human MT4 cells assessed as reduction in virus-induced cytopathic effect incubated for 4 days by MTT assay; assay type: functional, organism-based; details: Human immunodeficiency virus 1, MT4, 96 h
[6] = tested on: Human immunodeficiency virus 1; experiment: Antiviral activity against HIV-1 harboring reverse transcriptase E138K mutant infected in human MT4 cells assessed as reduction in virus-induced cytopathic effect incubated for 4 days by MTT assay; assay type: functional, organism-based; details: Human immunodeficiency virus 1, MT4, 96 h

Cc1cc(-c2ccc(Oc3nc(Nc4ccc(C#N)cc4)nc4ccsc34)cc2C)ccc1C#N
IC50 [1]: 42 nM

Cc1cc(-c2ccc(C#N)cc2F)ccc1Oc1nc(Nc2ccc(C#N)cc2)nc2ccsc12
IC50 [1]: 62 nM

N#Cc1ccc(Nc2nc(Oc3ccc(-c4ccc(C#N)c(Cl)c4)cc3Cl)c3sccc3n2)cc1
IC50 [1]: 31 nM

Cc1cc(C#N)ccc1-c1ccc(Oc2nc(Nc3ccc(C#N)cc3)nc3ccsc23)cc1C
IC50 [1]: 27 nM

N#Cc1ccc(Nc2nc(Oc3ccc(-c4ccc(C#N)cc4F)cc3)c3sccc3n2)cc1
IC50 [1]: 65 nM

O=C1Nc2ccc(Cl)cc2[C@@](C#CC2CC2)(C(F)(F)F)O1 [EFAVIRENZ]
CC50 at 96 h [2]: > 6.34 µM

Cc1cc(C#N)cc(C)c1Oc1nc(Nc2ccc(C#N)cc2)nc(N)c1Br [ETRAVIRINE]
CC50 at 96 h [2]: > 4.61 µM

Cc1ccnc2c1NC(=O)c1cccnc1N2C1CC1 [NEVIRAPINE]
EC50 [3]: > 9.55 µM
CC50 at 96 h [2]: > 15 µM
EC50 [4]: > 15 µM
EC50 [5]: 1990 nM
EC50 [6]: 200 nM
